# Measured values taken from patent US20080194616A1, “PYRIDOPYRIMIDINONE COMPOUNDS USEFUL IN TREATING SODIUM CHANNEL-MEDIATED DISEASES OR CONDITIONS” (Xenon Pharmaceuticals Inc., priority 2007, published 2008).
# Where a name gives a salt, the structure may show the parent alone.
row,melting point,Structure (SMILES)
1,177 to 183 °C,"O=c1c(-c2ccc(N[C@@H]3CCNC3)cc2)c(N2CCCC2)nc2ccccn12 (as salt: chloride) [Example 7.11, (R)-2-pyrrolidin-1-yl-3-{4-[pyrrolidin-3-ylamino]phenyl}-4H-pyrido[1,2-a]pyrimidin-4-one hydrogen chloride]"
2,157 to 162 °C,"CCCCc1nc2ccccn2c(=O)c1-c1ccc2c(c1)CCN2 (as salt: hydrochloride) [Example 2, 2-butyl-3-(indolin-5-yl)-4H-pyrido[1,2-a]pyrimidin-4-one hydrochloride]"
3,155 to 170 °C,"CCCCc1nc2ccccn2c(=O)c1-c1ccc(NC[C@H]2CCCO2)cc1 (as salt: hydrochloride) [Example 3.27, (R)-2-butyl-3-(4-{[tetrahydrofuran-2-ylmethyl]amino}phenyl)-4H-pyrido[1,2-a]pyrimidin-4-one hydrochloride]"
4,155 to 170 °C,"CCCCc1nc2ccccn2c(=O)c1-c1ccc(NC[C@@H]2CCCO2)cc1 (as salt: hydrochloride) [Example 3.28, (S)-2-butyl-3-(4-{[tetrahydrofuran-2-ylmethyl]amino}phenyl)-4H-pyrido[1,2-a]pyrimidin-4-one hydrochloride]"
5,135 to 145 °C,"CCCCc1nc2ccccn2c(=O)c1-c1ccc(N[C@@H]2CCOC2)cc1 (as salt: hydrochloride) [Example 3.29, (R)-2-butyl-3-{4-[tetrahydrofuran-3-ylamino]phenyl}-4H-pyrido[1,2-a]pyrimidin-4-one hydrochloride]"
6,178 to 185 °C,"CCCCc1nc2ccccn2c(=O)c1-c1ccc(NC2CCCNC2)cc1 (centres unmarked) (as salt: hydrochloride) [Example 6, 2-butyl-3-[4-(piperidin-3-ylamino)phenyl]-4H-pyrido[1,2-a]pyrimidin-4-one hydrochloride]"
7,> 220 °C,"CCCCc1nc2ccccn2c(=O)c1-c1ccc(NC2CCNCC2)cc1 (as salt: hydrochloride) [Example 6.1, 2-butyl-3-[4-(piperidin-4-ylamino)phenyl]-4H-pyrido[1,2-a]pyrimidin-4-one hydrochloride]"
8,190 to 210 °C,"CCCCc1nc2ccccn2c(=O)c1-c1ccc(N[C@@H]2CCCNC2)cc1 (as salt: hydrochloride) [Example 6.2, (R)-2-butyl-3-{4-[piperidin-3-ylamino]phenyl}-4H-pyrido[1,2-a]pyrimidin-4-one hydrochloride]"
9,149 to 158 °C,"Cc1nc2ccccn2c(=O)c1-c1ccc(N[C@@H]2CCNC2)cc1 (as salt: hydrochloride) [Example 6.3, (R)-2-methyl-3-(4-(pyrrolidin-3-ylamino)phenyl)-4H-pyrido[1,2-a]pyrimidin-4-one hydrochloride]"
10,175 to 182 °C,"CCc1nc2ccccn2c(=O)c1-c1ccc(N[C@@H]2CCNC2)cc1 (as salt: hydrochloride) [Example 6.4, (R)-2-ethyl-3-(4-(pyrrolidin-3-ylamino)phenyl)-4H-pyrido[1,2-a]pyrimidin-4-one hydrochloride]"
11,136 to 139 °C,"CCCCc1nc2ccccn2c(=O)c1-c1ccc(NC2CCNC2)cc1 (centres unmarked) (as salt: hydrochloride) [Example 7, 2-butyl-3-(4-(pyrrolidin-3-ylamino)phenyl)-4H-pyrido[1,2-a]pyrimidin-4-one hydrochloride]"
12,164 to 171 °C,"CCCCc1nc2ccccn2c(=O)c1-c1ccc(N[C@H]2CCNC2)cc1 (as salt: hydrochloride) [Example 7.1, (S)-2-butyl-3-{4-[pyrrolidin-3-ylamino]phenyl}-4H-pyrido[1,2-a]pyrimidin-4-one hydrochloride]"
13,143 to 155 °C,"CCCCc1nc2ccccn2c(=O)c1-c1ccc(N[C@@H]2CCNC2)c(F)c1 (as salt: hydrochloride) [Example 7.2, (R)-2-butyl-3-{3-fluoro-4-[(pyrrolidin-3-ylamino]phenyl}-4H-pyrido[1,2-a]pyrimidin-4-one hydrochloride]"
14,179 to 187 °C,"CCCCc1nc2ccccn2c(=O)c1-c1ccc(N[C@@H]2CCNC2)cc1C (as salt: hydrochloride) [Example 7.3, (R)-2-butyl-3-{2-methyl-4-[pyrrolidin-3-ylamino]phenyl}-4H-pyrido[1,2-a]pyrimidin-4-one hydrochloride]"
15,> 170 °C,"CCCCc1nc2ccccn2c(=O)c1-c1cccc(NC2CCNC2)c1 (centres unmarked) (as salt: hydrochloride) [Example 7.4, 2-butyl-3-[3-(pyrrolidin-3-ylamino)phenyl]-4H-pyrido[1,2-a]pyrimidin-4-one hydrochloride]"
16,180 to 184 °C,"CC(C)c1nc2ccccn2c(=O)c1-c1ccc(NC2CCNC2)cc1 (centres unmarked) (as salt: hydrochloride) [Example 7.5, 2-(1-methylethyl)-3-[4-(pyrrolidin-3-ylamino)phenyl]-4H-pyrido[1,2-a]pyrimidin-4-one hydrochloride]"
17,171 to 187 °C,"CC(C)CCc1nc2ccccn2c(=O)c1-c1ccc(N[C@@H]2CCNC2)cc1 (as salt: hydrochloride) [Example 7.6, (R)-2-isopentyl-3-(4-(pyrrolidin-3-ylamino)phenyl)-4H-pyrido[1,2-a]pyrimidin-4-one hydrochloride]"
18,182 to 185 °C,"O=c1c(-c2ccc(N[C@@H]3CCNC3)cc2)c(CCC2CC2)nc2ccccn12 (as salt: hydrochloride) [Example 7.7, (R)-2-(2-cyclopropylethyl)-3-(4-(pyrrolidin-3-ylamino)phenyl)-4H-pyrido[1,2-a]pyrimidin-4-one hydrochloride]"

row,melting point,Structure (SMILES)
1,156 to 161 °C,"CCCNc1nc2ccccn2c(=O)c1-c1ccc(NC2CCNC2)cc1 (centres unmarked) (as salt: hydrochloride) [Example 7.8, 2-(propylamino)-3-[4-(pyrrolidin-3-ylamino)phenyl]-4H-pyrido[1,2-a]pyrimidin-4-one hydrochloride]"
2,232 to 236 °C,"CC(C)Nc1nc2ccccn2c(=O)c1-c1ccc(NC2CCNC2)cc1 (centres unmarked) (as salt: hydrochloride) [Example 7.9, 2-[(1-methylethyl)amino]-3-[4-(pyrrolidin-3-ylamino)phenyl]-4H-pyrido[1,2-a]pyrimidin-4-one hydrochloride]"
3,229 to 234 °C,"CC(C)Nc1nc2ccccn2c(=O)c1-c1ccc(N[C@@H]2CCNC2)cc1 (as salt: hydrochloride) [Example 7.10, (R)-2-[(1-methylethyl)amino]-3-{4-[pyrrolidin-3-ylamino]phenyl}-4H-pyrido[1,2-a]pyrimidin-4-one hydrochloride]"
4,159 to 163 °C,"CCCCc1nc2ccccn2c(=O)c1-c1ccc2c(c1)CCN2C1CCNC1 (centres unmarked) (as salt: hydrochloride) [Example 7.12, 2-butyl-3-(1-(pyrrolidin-3-yl)indolin-5-yl)-4H-pyrido[1,2-a]pyrimidin-4-one hydrochloride]"
5,> 245 °C,"CCCCc1nc2ccccn2c(=O)c1-c1ccc(N2CCNCC2)nc1 (as salt: hydrochloride) [Example 7.13, 2-butyl-3-(6-piperazin-1-ylpyridin-3-yl)-4H-pyrido[1,2-a]pyrimidin-4-one hydrochloride]"
6,132 to 140 °C,"CCCCc1nc2ccccn2c(=O)c1-c1ccc(O[C@@H]2CCNC2)cc1 (as salt: hydrochloride) [Example 15, (R)-2-butyl-3-{4-[pyrrolidin-3-yloxy]phenyl}-4H-pyrido[1,2-a]pyrimidin-4-one hydrochloride]"
7,170 to 185 °C,"CCCCc1nc2ccccn2c(=O)c1-c1ccc(N(C)C2CCCNC2)cc1 (centres unmarked) (as salt: hydrochloride) [Example 17, 2-butyl-3-{4-[methyl(piperidin-3-yl)amino]phenyl}-4H-pyrido[1,2-a]pyrimidin-4-one hydrochloride]"
8,106 to 108 °C,"CCCCc1nc2ccccn2c(=O)c1-c1ccc(OS(=O)(=O)C(F)(F)F)cc1 (as salt: methanesulfonate) [Example 12, 4-(2-butyl-4-oxo-4H-pyrido[1,2-a]pyrimidin-3-yl)phenyl trifluoromethanesulfonate]"
9,56 to 58 °C,"COc1nc2ccccn2c(=O)c1-c1ccc(NC2CCNC2)cc1 (centres unmarked) (as salt: trifluoroacetate) [Example 9, 2-methoxy-3-[4-(pyrrolidin-3-ylamino)phenyl]-4H-pyrido[1,2-a]pyrimidin-4-one trifluoroacetate]"
10,> 100 °C (dec.),"CCCOc1nc2ccccn2c(=O)c1-c1ccc(N[C@@H]2CCNC2)cc1 (as salt: trifluoroacetate) [Example 9.1, (R)-2-propoxy-3-(4-(pyrrolidin-3-ylamino)phenyl)-4H-pyrido[1,2-a]pyrimidin-4-one trifluoroacetate]"
11,109 to 110 °C,"CCCc1nc2ccccn2c(=O)c1-c1ccc(Cl)cc1 [Example 1.4, 3-(4-chlorophenyl)-2-propyl-4H-pyrido[1,2-a]pyrimidin-4-one]"
12,118 to 120 °C,"CCCCc1nc2ccccn2c(=O)c1-c1ccccc1Cl [Example 1.6, 2-butyl-3-(2-chlorophenyl)-4H-pyrido[1,2-a]pyrimidin-4-one]"
13,105 to 107 °C,"CCCCc1nc2ccccn2c(=O)c1-c1ccc(Cl)cc1C [Example 1.9, 2-butyl-3-(4-chloro-2-methylphenyl)-4H-pyrido[1,2-a]pyrimidin-4-one]"
14,122 to 124 °C,"CCCCc1nc2ccccn2c(=O)c1-c1ccc(Cl)c(C)c1 [Example 1.10, 2-butyl-3-(4-chloro-3-methylphenyl)-4H-pyrido[1,2-a]pyrimidin-4-one]"
15,113 to 115 °C,"CCCCc1nc2ccccn2c(=O)c1-c1ccc(OC)c(Cl)c1 [Example 1.13, 2-butyl-3-(3-chloro-4-methoxyphenyl)-4H-pyrido[1,2-a]pyrimidin-4-one]"
16,146 to 149 °C,"CC(C)CCc1nc2ccccn2c(=O)c1-c1ccc(Cl)cc1 [Example 1.17, 3-(4-chlorophenyl)-2-isopentyl-4H-pyrido[1,2-a]pyrimidin-4-one]"
17,116 to 118 °C,"COCCc1nc2ccccn2c(=O)c1-c1ccc(Cl)cc1 [Example 1.26, 3-(4-chlorophenyl)-2-(2-methoxyethyl)-4H-pyrido[1,2-a]pyrimidin-4-one]"
